Reference: paper PMC3192012 (Biochemistry, 2011)

Experiments:
His6P4H1 [1] = molecular target: T1, His6P4H1 (Dictyostelium discoideum, UniProt Q86KR9); test: […]CO2-release assay with Skp1A; type: biochemical; details: 0.05 mM [1-14C]αKG, 5 µM Skp1A, 5 µM Fe(II), 1 mM ascorbate, pH 7.4, 29 °C, αKG antagonist
His6P4H1 [2] = molecular target: T1, His6P4H1; test: […]CO2-release assay with Skp1A; type: biochemical; details: read-out: % inhibition at 1 mM

T1 sequence (Q86KR9 whole entry): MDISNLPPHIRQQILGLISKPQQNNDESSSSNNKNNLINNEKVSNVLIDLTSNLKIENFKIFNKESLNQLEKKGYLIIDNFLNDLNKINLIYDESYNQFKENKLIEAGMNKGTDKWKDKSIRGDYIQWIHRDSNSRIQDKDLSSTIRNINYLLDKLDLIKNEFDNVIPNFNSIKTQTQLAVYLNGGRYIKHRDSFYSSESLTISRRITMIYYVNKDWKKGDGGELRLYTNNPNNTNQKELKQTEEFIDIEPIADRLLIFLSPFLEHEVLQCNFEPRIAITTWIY

With `COC(=O)CNC(=O)C(=O)OC` [DMOG] the “% inhibition” value (His6P4H1 [1]; EtOH carrier) was “the αKG antagonists DMOG and PCA, and CoCl2 (Fig. 1D)”.
For `O=C(O)c1ccc(O)c(O)c1` [PCA], the “% inhibition” value (His6P4H1 [1]) was “the αKG antagonists DMOG and PCA, and CoCl2 (Fig. 1D)”.
`O=C(O)/C=C/C(=O)O` [fumarate] gave an inhibition at 1000 µM (His6P4H1 [2]) of 50 to 70%.
For `O=C(O)CC(=O)C(=O)O` [oxaloacetate], the inhibition at 1000 µM (His6P4H1 [2]) was 50 to 70%.
In the case of `O=C(O)CCC(=O)O` [succinate], the inhibition at 1000 µM (His6P4H1 [2]) is reported as 50 to 70%.
